In patent US10479770B2, “Phosphatidylinositol 3-kinase inhibitors” (Gilead Sciences, Inc., priority 2016, dated 2019):

The compounds below were run against T1, PI3Kβ (Homo sapiens, UniProt P42338) (assay: TR-FRET enzymatic activity assay against PI3K isoforms). Conditions: 2×Km ATP, 2 μM PIP2, 30 minutes at 25° C., recombinant heterodimeric PI3Kβ 25-50 pM, read-out: IC50-PIP-Beta.
T1 construct: made in house
Assay type: biochemical
Method: The compounds of formula (I) were characterized for their enzymatic activity against the PI3K isoforms. The activities were measured using a time-resolved fluorescence resonance energy transfer (TR-FRET) assay. TR-FRET monitored the formation of 3,4,5-inositol triphosphate molecule that competed with fluorescently labeled PIPS for binding to the GRP-1 pleckstrin homology domain protein.
Class I PI3K isoforms were expressed and purified as heterodimeric recombinant proteins. All assay reagents and buffers for the TR-FRET assay were purchased from Millipore. […] The compounds were added to the assay solution and incubated for 30 minutes at 25° C. The reactions were terminated with a final concentration of 10 mM EDTA, 10 nM labeled-PIPS, and 35 nM Europium labeled GRP-1 detector protein before reading TR-FRET on an Envision plate reader (Ex: 340 nm; Em: 615/665 nm; 100 μs delay and 500 μs read window).
The results were normalized based on positive (1 μM wortmanin) and negative (DMSO) controls, and the IC50 values for PI3K α, β, δ, and γ were calculated from the fit of the dose-response curves to a four-parameter equation. These assays generally produced results within 3-fold of the reported mean.

T1 sequence (P42338 whole entry, canonical isoform): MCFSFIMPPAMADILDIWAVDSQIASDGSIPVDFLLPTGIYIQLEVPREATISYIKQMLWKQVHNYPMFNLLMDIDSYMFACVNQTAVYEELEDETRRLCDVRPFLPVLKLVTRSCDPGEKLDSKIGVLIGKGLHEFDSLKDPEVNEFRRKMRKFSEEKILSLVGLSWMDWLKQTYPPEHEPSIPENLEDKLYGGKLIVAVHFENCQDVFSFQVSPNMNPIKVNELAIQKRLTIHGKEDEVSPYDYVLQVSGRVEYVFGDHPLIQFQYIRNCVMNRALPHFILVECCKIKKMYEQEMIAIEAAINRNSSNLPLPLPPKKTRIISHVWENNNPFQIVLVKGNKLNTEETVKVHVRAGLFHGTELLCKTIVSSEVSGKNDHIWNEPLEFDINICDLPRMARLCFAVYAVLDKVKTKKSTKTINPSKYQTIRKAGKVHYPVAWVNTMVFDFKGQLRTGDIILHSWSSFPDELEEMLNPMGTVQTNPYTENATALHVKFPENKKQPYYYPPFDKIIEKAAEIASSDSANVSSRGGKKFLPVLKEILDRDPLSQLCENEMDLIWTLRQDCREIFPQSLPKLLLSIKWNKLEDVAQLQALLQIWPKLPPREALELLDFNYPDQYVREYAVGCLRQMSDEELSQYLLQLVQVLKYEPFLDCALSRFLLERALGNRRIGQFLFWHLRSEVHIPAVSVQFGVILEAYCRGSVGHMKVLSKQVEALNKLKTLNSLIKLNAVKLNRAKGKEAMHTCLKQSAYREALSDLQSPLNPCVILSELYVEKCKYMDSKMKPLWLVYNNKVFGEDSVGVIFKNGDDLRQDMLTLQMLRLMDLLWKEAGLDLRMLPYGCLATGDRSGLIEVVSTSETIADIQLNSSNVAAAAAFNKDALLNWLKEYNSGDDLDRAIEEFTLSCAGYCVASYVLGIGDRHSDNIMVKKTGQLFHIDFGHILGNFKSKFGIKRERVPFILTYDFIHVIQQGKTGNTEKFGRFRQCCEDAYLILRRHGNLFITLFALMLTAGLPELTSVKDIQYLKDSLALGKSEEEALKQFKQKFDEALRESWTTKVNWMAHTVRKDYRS
T1 sequence (P27986 whole entry partner, canonical isoform): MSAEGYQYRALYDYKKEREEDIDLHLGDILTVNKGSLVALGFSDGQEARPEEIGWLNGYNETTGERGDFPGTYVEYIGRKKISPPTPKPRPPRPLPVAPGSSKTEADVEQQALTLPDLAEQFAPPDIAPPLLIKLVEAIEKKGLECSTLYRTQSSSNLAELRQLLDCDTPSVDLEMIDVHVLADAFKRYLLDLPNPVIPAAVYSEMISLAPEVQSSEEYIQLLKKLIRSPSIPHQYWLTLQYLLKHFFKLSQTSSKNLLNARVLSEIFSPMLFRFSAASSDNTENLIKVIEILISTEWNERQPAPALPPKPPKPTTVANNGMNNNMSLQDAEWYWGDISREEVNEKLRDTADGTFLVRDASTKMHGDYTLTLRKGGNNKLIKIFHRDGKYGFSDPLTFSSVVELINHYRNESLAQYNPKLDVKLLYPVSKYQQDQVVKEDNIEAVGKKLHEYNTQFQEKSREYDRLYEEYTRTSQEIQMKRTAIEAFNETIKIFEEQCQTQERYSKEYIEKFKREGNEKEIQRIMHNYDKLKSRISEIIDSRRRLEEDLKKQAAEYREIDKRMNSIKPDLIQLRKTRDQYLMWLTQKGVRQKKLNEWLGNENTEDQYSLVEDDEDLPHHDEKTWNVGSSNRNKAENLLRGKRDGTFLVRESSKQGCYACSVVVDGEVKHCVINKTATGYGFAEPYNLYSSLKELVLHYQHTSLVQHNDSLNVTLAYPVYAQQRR

IC50 [nM]	Structure (SMILES)
42	CCCc1nc2c(-c3nnc[nH]3)cc(N3CCOCC3)cc2n1-c1cccc2c(F)cccc12 (single isomer, unassigned) [Compound 6-1, 4-[3-(5-fluoronaphthalen-1-yl)-2-propyl-7-(4H-1,2,4-triazol-3-yl)benzimidazol-5-yl]morpholine]
3	CCCc1nc2c(-c3nnc[nH]3)cc(N3CCOCC3)cc2n1-c1cccc2c(F)cccc12 (single isomer, unassigned) [Compound 6-2, 4-[3-(5-fluoronaphthalen-1-yl)-2-propyl-7-(4H-1,2,4-triazol-3-yl)benzimidazol-5-yl]morpholine]
140	COC(=O)c1cc(N2CCOCC2)cc2c1nc(C)n2-c1cccc2ccccc12 [Compound 2-1, methyl 1-(naphthalen-1-yl)-2-methyl-6-morpholino-1H-benzo[d]imidazole-4-carboxylate]
230	COC(=O)c1cc(N2CCOCC2)cc2c1ncn2-c1cccc2ccccc12 [Compound 2-2, methyl 6-morpholin-4-yl-1-naphthalen-1-ylbenzimidazole-4-carboxylate]
700	CCOC(=O)c1nc2c(C(=O)OC)cc(N3CCOCC3)cc2n1-c1cccc2ccccc12 [Compound 2-3, 2-O-ethyl 4-O-methyl 6-morpholin-4-yl-1-naphthalen-1-ylbenzimidazole-2,4-dicarboxylate]
> 10000	O=C(O)c1cc(N2CCOCC2)cc2c1ncn2-c1cccc2ccccc12 [Compound 3-1, 6-morpholin-4-yl-1-naphthalen-1-ylbenzimidazole-4-carboxylic acid]
1800	Cc1nc2c(C(=O)O)cc(N3CCOCC3)cc2n1-c1cccc2ccccc12 [Compound 3-2, 2-methyl-6-morpholin-4-yl-l-naphthalen-1-ylbenzimidazole-4-carboxylic acid]
87	Cc1nc2c(C(N)=O)cc(N3CCOCC3)cc2n1-c1ccc(F)c2ccccc12 [Compound 4-1, 1-(4-fluoronaphthalen-1-yl)-2-methyl-6-morpholino-1H-benzo[d]imidazole-4-carboxamide]
2300	Cc1nc2c(C(N)=O)cc(N3CCOCC3)cc2n1-c1cnc2c(Cl)cccc2c1 [Compound 4-2, 1-(8-chloroquinolin-3-yl)-2-methyl-6-morpholino-1H-benzo[d]imidazole-4-carboxamide]
390	Cc1nc2c(C(N)=O)cc(N3CCOCC3)cc2n1-c1cnc2cccc(Cl)c2c1 [Compound 4-3, 1-(5-chloroquinolin-3-yl)-2-methyl-6-morpholino-lH-benzo[d]imidazole-4-carboxamide]
13	Cc1nc2c(C(N)=O)cc(N3CCOCC3)cc2n1-c1cccc2c(F)cccc12 [Compound 4-4, 1-(5-fluoronaphthalen-1-yl)-2-methyl-6-morpholin-4-ylbenzimidazole-4-carboxamide]
9	Cc1nc2c(-c3nnc[nH]3)cc(N3CCOCC3)cc2n1-c1ccc(F)c2ccccc12 [Compound 5-1, 4-(1-(4-fluoronaphthalen-1-yl)-2-methyl-4-(4H-1,2,4-triazol-3-yl)-1H-benzo[d]imidazol-6-yl)morpholine]
43	Cc1nnc(-c2cc(N3CCOCC3)cc3c2nc(C)n3-c2ccc(F)c3ccccc23)[nH]1 [Compound 5-2, 4-[3-(4-fluoronaphthalen-1-yl)-2-methyl-7-(5-methyl-4H-1,2,4-triazol-3-yl)benzimidazol-5-yl]morpholine]
4200	Cc1nc2c(-c3nnc[nH]3)cc(N3CCOCC3)cc2n1-c1cnc2ccc(Cl)cc2c1 [Compound 5-3, 4-(1-(6-chloroquinolin-3-yl)-2-methyl-4-(4H-1,2,4-triazol-3-yl)-1H-benzo[d]imidazol-6-yl)morpholine]
1200	CCc1nc2c(-c3nnc[nH]3)cc(N3CCOCC3)cc2n1-c1cnc2ccccc2c1 [Compound 5-4, 4-(2-ethyl-1-(quinolin-3-yl)-4-(4H-1,2,4-triazol-3-yl)-lH-benzo[d]imidazol-6-yl)morpholine]
1200	Cc1nc2c(-c3nnc[nH]3)cc(N3CCOCC3)cc2n1-c1cnc2cc(Cl)ccc2c1 [Compound 5-5, 4-(1-(7-chloroquinolin-3-yl)-2-methyl-4-(4H-1,2,4-triazol-3-yl)-1H-benzo[d]imidazol-6-yl)morpholine]
720	Cc1nc2c(-c3nnc[nH]3)cc(N3CCOCC3)cc2n1-c1cnc2ccccc2c1 [Compound 5-6, 4-(2-methyl-1-(quinolin-3-yl)-4-(4H-1,2,4-triazol-3-yl)-1H-benzo[d]imidazol-6-yl)morpholine]
190	Cc1nc2c(-c3nnc[nH]3)cc(N3CCOCC3)cc2n1-c1cnc2c(Cl)cccc2c1 [Compound 5-7, 4-(1-(8-chloroquinolin-3-yl)-2-methyl-4-(4H-1,2,4-triazol-3-yl)-H-benzo[d]imidazol-6-yl)morpholine]
28	Cc1nc2c(-c3nnc[nH]3)cc(N3CCOCC3)cc2n1-c1cnc2cccc(Cl)c2c1 [Compound 5-8, 4-(1-(5-chloroquinolin-3-yl)-2-methyl-4-(4H-1,2,4-triazol-3-yl)-1H-benzo[d]imidazol-6-yl)morpholine]
220	CCc1nc2c(-c3nnc[nH]3)cc(N3CCOCC3)cc2n1-c1ccc2ccccc2n1 [Compound 5-9, 4-(2-ethyl-1-(quinolin-2-yl)-4-(4H-1,2,4-triazol-3-yl)-1H-benzo[d]imidazol-6-yl)morpholine]
38	Cc1nc2c(-c3nnc[nH]3)cc(N3CCOCC3)cc2n1-c1ccc2ccccc2c1 [Compound 5-10, 4-(2-methyl-1-(naphthalen-2-yl)-4-(4H-1,2,4-triazol-3-yl)-1H-benzo[d]imidazol-6-yl)morpholine]
6	CCCc1nc2c(-c3nnc[nH]3)cc(N3CCOCC3)cc2n1-c1cccc2c(F)cccc12 [Compound 5-11, 4-[3-(5-fluoronaphthalen-1-yl)-2-propyl-7-(4H-1,2,4-triazol-3-yl)benzimidazol-5-yl]morpholine]
2	Fc1cccc2c(-n3cnc4c(-c5nnc[nH]5)cc(N5CCOCC5)cc43)cccc12 [Compound 5-12, 4-[3-(5-fluoronaphthalen-1-yl)-7-(4H-1,2,4-triazol-3-yl)benzimidazol-5-yl]morpholine]
5	Cc1nc2c(-c3nnc[nH]3)cc(N3CCOCC3)cc2n1-c1cccc2c(F)cccc12 [Compound 5-13, 4-[3-(5-fluoronaphthalen-1-yl)-2-methyl-7-(4H-1,2,4-triazol-3-yl)benzimidazol-5-yl]morpholine]
580	Cc1nc2c(-c3nnc[nH]3)cc(N3CCOCC3)cc2n1-c1cc2ccccc2cn1 [Compound 5-14, 4-(1-(isoquinolin-3-yl)-2-methyl-4-(4H-1,2,4-triazol-3-yl)-1H-benzo[d]imidazol-6-yl)morpholine]
3400	Cc1nnc(-c2cc(N3CCOCC3)cc3c2nc(C)n3-c2cc3ccccc3cn2)[nH]1 [Compound 5-15, 4-(1-(isoquinolin-3-yl)-2-methyl-4-(5-methyl-4H-1,2,4-triazol-3-yl)-1H-benzo[d]imidazol-6-yl)morpholine]
